“Also recorded” adds a separate entry of the source.
What was measured:
[1] = tested on: yeast vacuoles; test: Vm of yeast vacuoles (Oxonol V); type: biochemical, S. cerevisiae; conditions: 10 μM, KCl or K-gluconate buffer, 2.5 mM ATP
Experimental: Oxonol V is a membrane permeable anionic fluorescent probe that accumulates into the inner leaflet of vesicles with positive Vm, resulting in quenching of fluorescence. Vacuoles were suspended in chloride or gluconate vesicle buffer with 1 μM Oxonol V. Fluorescence was measured with a λex =600 nm and λem =630 nm. After fluorescence has equilibrated, vacuoles were added and the fluorescence is allowed to re-equilibrate. Then, 1 mM Tris-ATP was added and the resulting positive Vm was manifested in fluorescence quenching.
The fluorescent dye Oxonal V was used to monitor Vm.
The Vm was monitored in either KCl or K-gluconate buffer (FIG. 3A).

[2] = NMR in 10% Triton solution; cited from earlier work
[3] = tested on: microsomes isolated from MCF-7/ADR cells; test: In vitro acidification of MCF-7/ADR microsomes (acridine orange quenching); type: biochemical
Experimental: Cells were grown in Minimal Essential. Medium supplemented with 10% Fetal Bovine Serum to confluence in 10 level Cell Factories (Nunc, Naperville, Ill.), trypsinized, washed 3× with cold PBS and lysed with a Dounce homogenizer (Pestle A) in 0.25 M sucrose, 20 mM HEPES (pH 7.4), 1 mM DTT, 1 mM EDTA, and 1× protease inhibitor mix (1 μg/ml leupeptin, 1 μ/ml pepstatin A, 1 μg/ml aprotinin, and 16 μM PMSF mixed to 100× before use). The homogenate was centrifuged twice for 10 minutes at 3000×g to remove unbroken cells and nuclei. The supernatant was layered over 20 ml of 0.5 M sucrose (20 mM HEPES (pH 7.4), 1 mM DTT, 1 mM EDTA, 1× protease inhibitor mix) and 1 ml of 2 M sucrose and centrifuged for 1 hour at 100,000 g (Beckman Ti60 Rotor). Microsomes are collected at the 0.5M and 2M interface.
To monitor acidification of the total microsomal fraction, the quenching of AO fluorescence was monitored essentially as described previously [Barasch et al., Nature 352:70-73 (1991)]. Acidic vesicles accumulate AO to high concentrations resulting in the self quenching of the dye and a decrease of the overall fluorescence. Fluorescence was measured on an SLM Aminco-Bowman series 2 luminescence spectrometer with λex =488 nm and λem =530 nm Microsomes (80 μg protein) were suspended in 2.5 ml vesicle buffer (125 mM KCl, 5 mM MgCl2, 20 mM HEPES (pH 7.4), 1 mM DTT, 1 mM EDTA, 2 mM NaN3), with 6 μM AO (5 mM stock in H2 O) in a cuvet. […] After equilibration for 30 minutes at 25° C. 1 mM Tris-ATP was added to begin acidification (100 mM stock, titrated to pH 7.4 with 1 M Tris-base before use). Twenty minutes later, 2.5 μM of nigericin (10 mM stock in EtOH) was added to dissipate any ΔpH formation.
Acridine orange (AO) was used as a probe for lumenal acidification. As vesicles acidify, they accumulate AO to self-quenching concentrations, and deplete the extra-vesicular free AO, resulting in a decrease in total fluorescence. Acidification was initiated by the addition of ATP to a purified microsomal fraction in the absence of cytosol (FIG. 1A, at t=300 sec). […] Nigericin, a K^+ /H^+ exchanger that rapidly dissipates pH gradients, was added at the end of each reaction (t=1500 seconds).

[4] = tested on: yeast vATPase; test: Bafilomycin-inhibitable ATPase activity of yeast vATPase; type: biochemical, S. cerevisiae; conditions: 5 μM, chloride and gluconate buffer
Experimental: Vacuoles were diluted in KCl or K-gluconate vesicle buffer. […] Each of the four resulting samples was again split into two and either carrier or […] bafilomycin A1 was added. Next, 2 mM Tris-ATP was added to each sample and the vacuoles were incubated at 30° C. for 15 minutes. To measure the phosphate concentration from ATP hydrolysis, equal volume of Taussky-Shorr Reagent (1% w/v ainmoniummolybdate (w/v), 2.7% v/v sulfuric acid, and 5% w/v ferrous sulfate hexahydrate) was added and the samples were developed for 15 minutes. The A660 was measured (Spectronic Genesys 2) which is linearly related to phosphate concentration. The bafilomycin inlubtable ATPase activity was taken as the difference between the ATPase activity of each condition with or without 100 nM bafilomycin A1.
Replacing chloride with gluconate decreased the bafilomycin-inhibitable ATPase activity (FIG. 3B), further confirming that chloride provided the counter-ion transport to dissipate the Vm.

[5] = Experimental: The lumenal pH (pHL) of liposomes was assayed with pyranine, a fluorescent dye with a pKa~7.3 and a λex =405 nm in its acid form (-3 charge) and a λex =455 nm in its basic form (-4 charge). To prepare pyranine loaded liposomes, lipids (2 mg POPC, 1 mg cholesterol) supplied in chloroform suspension were dried in a round bottom flask under argon for 2 hours. The lipids were then resuspended in acidic or alkaline liposome buffer (300 mM KCl, 20 mM MES, 20 mM MOPS, 20 mM Tricine titrated with KOH to either pH 6.2 or pH 8.1) containing 0.5 mM pyranine. The suspension was incubated at room temperature overnight, then freeze-thawed 6×. Unilamellar liposomies were prepared by extrusion 3× through 2 stacked 100 nm Nucleopore (Corning/Costar Scientific, Acton, Mass.) polycarbonate filters in an Avestin (Vancouver, BC) extruder at 600 PSI.
The pyranine fluorescence was calibrated as a function of pH by diluting the liposomes with pH 6.2 into a weakly buffered solution of identical pH (300 mM KCl, 1 mM MES, 1 mM MOPS, 1 mM Tricine, pH 6.2), 1 μM nigericin to allow rapid equilibration with external pH and 5 mM DPX to quench external pyranine. The ratio of the fluorescence emission at λem =510 nm was monitored with dual excitation wavelengths of λex =405 nm and λex =455 nm. Sequential aliquots of 0.1 mM glycylglycine, pH 8.4 were added to increase pH (See FIG. 5). The fluorescence was measured after each addition and the pH was measured using a pH meter. […] The cahiration curve for the liposomes of lumenal pH 8.1 was generated identically except sequential aliquots of 0.1 mM K-MES pH 5.0 were added for titration and the curve was generated between pH 8.1 and pH 6.4.
To measure the rate of pH dissipation of liposomes with lumenal pH=6.2, the liposomes were diluted in weakly buffered solution of identical pH as described above, but with no nigericin. […] The external pH was shifted to pH 7.3 by addition of 5 mM glycylglycine pH 8.4 and the fluorescence ratio monitored. After 10 minutes, 1 μM nigericin was added to dissipate the remaining pH gradient. The pHL was calculated using the equation pH=x*log(λex =405 nm/[…])+c, were x and c are constants from the least square fit of the titration curve. To measure the rate of pH dissipation of liposomes with pHL =8.1, the identical procedure was followed except 5 mM K-MES pH 5.0 was added to shift the external pH to 6.9.
Liposomes were loaded with pyranine, a hydrophilic, non-permeable fluorescent pH indicator to assay proton permeability. […] Two steps were taken to ensure that only pHL was measured and to permit the discrimination between dissipation of pH gradient and the lysis or dye leakage from liposomes.

CC/C(=C(\c1ccccc1)c1ccc(OCCN(C)C)cc1)c1ccccc1 [tamoxifen]
effect on Vm generated by the vATPase [1]: significantly decreased the Vm
pKa [2]: 6.9
time to almost complete dissipation of the pH gradient ([3]; added 10 minutes after ATP, 8 μM tamoxifen (FIG. 1B)): ≤ 5 minutes
rate of dissipation of pre-existing pH gradient ([3]; added 10 minutes after ATP, tamoxifen 8 μM, bafilomycin A1 100 nM): rapidly reversed acidification
concentration at which acidification was totally blocked ([3]; pre-treated 30 minutes): 8 µM
concentration at which inhibition of acidification was evident ([3]; pre-treated 30 minutes): 1 µM
effect on bafilomycin-inhibitable ATPase activity [4]: increase of ATPase activity
effect of addition on pHL without pre-existing pH gradient ([5]; pHL 6.2 = external pH, tamoxifen 2 μM, 8 μM, NH4Cl 5 mM): alkalinization of liposomes, followed by more rapid pH equilibration
effect on pH equilibration with chloride included ([5]; pHL 8.1, 300 mM K-glutamate plus 90 mM KCl, external pH shifted to 6.9): more rapid pH equilibration
effect on dissipation of pH in the absence of chloride ([5]; pHL 8.1, 300 mM K-glutamate, external pH shifted to 6.9): no effect on the dissipation of pH
rate of pH gradient dissipation, alkaline lumen ([5]; pHL 8.1, external pH shifted to 6.9, tamoxifen 0.5-8 μM, NH4Cl 5 mM, FCCP 1 μM, valinomycin 1 μM): dissipated more quickly with increasing concentrations; also recorded: faster than saturating concentration of FCCP

From patent US6204067A, “Methods of identifying modulators of the estrogen receptor” (Board of Trustees Operating Michigan State University, priority 1999, dated 2001)
